Test: Human HepG2 cell viability assay in 384 well format
Type: toxicity, cell-based
Parameters: dose 125 nL, time 70.5 hour; concentration not given beside the values
Settings: HepG2 cells, read-out: Inhibition

SMILES | cytotoxicity at 70.5 h
CC(C)n1ncc2c1NC(=O)CC21C(=O)Nc2c(Cl)cc(Br)cc21 (centres undefined) | -0.17%
COc1ccc(CNC(=O)NC(C)(C(=O)O)c2ccco2)cc1F (centres undefined) | 16.9%
O=C(CNC(=O)c1ccccc1F)NCc1ccccn1 | -7.71%
Cc1cc(S(=O)(=O)N2CCc3ccc(F)cc32)cc(C(=O)O)c1C | 6.28%
Clc1cc(Cl)cc(CN2CCC(NCc3ncc[nH]3)CC2)c1 | -4.36%
CC(C)c1cc(COCCCC(=O)O)no1 | -2.63%
O=C1C(NS(=O)(=O)c2cc(F)cc(F)c2)CCN1Cc1ccccc1 (centres undefined) | 23.4%
Cc1ccc(-c2nc(CN3CCN(CC(=O)N(C)C)CC3)cs2)o1 | -5.37%
CN(CCc1ccncc1)CCc1nccs1 | -12.8%
Cn1c(CC2CCS(=O)(=O)C2)nnc1SCCOc1ccccc1F (centres undefined) | -8.16%
CC1CCCCN1C(=O)CN1CCN(c2ccc3nncn3n2)CC1 (centres undefined) | -11.2%
O=C1CC(c2ccncc2)C2(CCN(C(=O)c3ccnnc3)CC2)N1 (centres undefined) | -8.48%
CN(C(=O)CCN1CCCC1=O)c1cc(C#N)c2ccccc2n1 | 4.42%
CC(=O)N1CCC(NC2(Cc3cc(C(C)(C)O)on3)COC2)CC1 | -7.16%
O=C(NCC(=O)N1CCCc2ccccc21)c1c(O)cc(F)cc1F | 0.334%
O=C(NCC1CC1)[C@@H]1C[C@@H]2CCN(Cc3ccoc3)C[C@@H]2O1 | 2.93%
Cc1ccccc1CCNC(=O)C1CC(=O)N(CC(F)(F)F)C1 (centres undefined) | 26.6%
O=C(Nc1nncs1)N1CCCN(C2CCCC2)CC1 | 18.5%
COCCOc1cccc(C(=O)N2CCCCC2c2nccs2)c1 (centres undefined) | -3.68%
CN1CCN(C)C(CNc2c(C#N)cnc3ccc(Cl)cc23)C1 (centres undefined) | -8.13%
O=C(NCC1CCN(CCc2ccccc2)C1)NCC1(O)CCC1 (centres undefined) | -3.77%
Cc1nnc(NC(=O)NCc2ccc(N3CCNC(=O)C3)cc2)s1 | -3.76%
COc1ccc(Oc2cccc(C#N)n2)cc1CN1CCCC1 | -1.4%

SMILES | cytotoxicity at 70.5 h
CSc1ccc(CN2CCCC3(CNC(=O)c4ccccc4O3)C2)cc1 (centres undefined) | 2.19%
N#Cc1ccccc1CN1CCc2sccc2C1 | -8.96%
CS(=O)(=O)c1ccc(CNC(=O)Nc2cn[nH]c2)cc1 | -12.4%
CCn1c(C)nnc1CN(C)C1CCN(CCn2cccn2)C1 (centres undefined) | 7.42%
CCNC(c1ccc(CC)cc1)c1cccnc1 (centres undefined) | 7.31%
CN(CCNC(=O)c1cnc(-c2ccccc2)nc1)S(C)(=O)=O | 5.47%
CCN1CCC2(CCN(c3ncccn3)CC2)C1=O | -8.88%
O=C(NCC(O)CO)Nc1cc(Br)ccc1F (centres undefined) | -1.48%
COc1cc2c(cc1CNC(=O)Cc1cc(C)[nH]n1)OC(C)C2 (centres undefined) | 3.19%
Cc1cnn(-c2cccc(N3CCN(c4cc(C)nc(C)n4)CC3)n2)c1 | 15.5%
COC(=O)N1CCC2(CC1)CC(c1ccccc1)CN(C)C2 (centres undefined) | -0.459%
Cc1nc(N(Cc2ccncc2)CC2CCCO2)c2ccsc2n1 (centres undefined) | -5.47%
CC(NC(=O)OC(C)(C)C)c1nnc(S(=O)(=O)Cc2ccccc2Cl)o1 (centres undefined) | -4.85%
CC(C)N1CCOC(CC(=O)N2CCCN(Cc3cccs3)CC2)C1 (centres undefined) | -11.6%
CC(C)(CNC(=O)C1(c2ccccc2)CCOCC1)C(=O)O | -1.55%
O=S(=O)(NCC(O)c1ccoc1)c1ccc(Br)s1 (centres undefined) | -1.32%
CS(=O)(=O)CCOCCNc1cncc(Br)c1 | -3.24%
CC(C)N(Cc1ccc(C(=O)O)o1)C(C)C | -7.28%
CSc1ccc(OC(C)C(=O)Nc2cc[nH]n2)cc1 (centres undefined) | -2.7%
CCOC(=O)Cn1c(=O)c(OCC)nc2cnccc21 | -3.59%
Cc1nn(-c2ccccc2)nc1C(=O)N1CCCC(n2cccn2)C1 (centres undefined) | -1.86%
O=C(Nc1nncs1)N1CCC(c2ccc(O)cc2)CC1 | -4.31%
Cc1nc(C)n(C2CCCN(C(=O)c3sccc3C)C2)n1 (centres undefined) | -5.74%

SMILES | cytotoxicity at 70.5 h
Cc1csc(C(C)(C)NCCCS(C)(=O)=O)n1 | -2%
Cn1cc(C[C@H]2[C@H](N3CCOCC3)CCN2C(=O)c2ccoc2)cn1 | -16.3%
Cc1noc(-c2ccc(N(C)Cc3ccncn3)nc2)n1 | -5.88%
CNc1nc(C(=O)NCC2CCOc3ccccc3C2)cs1 (centres undefined) | 15.5%
Cc1ccc(CN2C[C@H]3C[C@H](C(=O)NCC4CC4)N(C)[C@H]3C2)o1 | -12.6%
CN(C)S(=O)(=O)N1CCN(Cc2ccnc(N3CCCC3)n2)CC1 | -1.31%
CN(C)c1ncc(-c2cncn2CCc2ccc3c(c2)OCCO3)cn1 | -7.82%
O=C(NCCCN1CCOCC1)c1ccc(-c2ccccc2)[nH]c1=O | -5.86%
COc1ccccc1N1CCCC(Nc2nccnc2C#N)C1 (centres undefined) | -6.29%
CCOC(C)C(=O)NS(=O)(=O)c1cccc2cc(C)cnc12 (centres undefined) | 1.55%
Cc1ccccc1SC1CCN(C(=O)[C@@H]2C[C@@H](N)CN2)CC1 | -2.11%
Cc1ncc(C(=O)NCCNc2ncccc2C#N)s1 | -0.109%
COc1ccc(C)cc1CC(=O)NS(=O)(=O)c1ccc(C(N)=O)cc1 | -6.98%
COc1cccc(-n2cc(CN(C)C(=O)c3cc[nH]n3)cn2)c1 | -6.6%
Cn1ccnc1-c1noc(NCc2ccccc2)n1 | -7.49%
Cc1nn(C)c(C)c1S(=O)(=O)NCC1(C(N)=O)CCOCC1 | -11.5%
Cc1c(C(=O)N2CCC(C(=O)c3nc4ccccc4s3)CC2)cnn1C | -0.714%
Cc1cc(=O)n2c3c(cc(S(=O)(=O)NC4CC4)cc13)CCC2 | 31.9%
CN(C)C(=O)COC[C@]12COC[C@H]1CN(Cc1ccco1)C2 | 0.692%
CC(CN1CCOCC1)NC(=O)c1cc(Cl)c2c(c1)OCCO2 (centres undefined) | 0.172%
Cc1nnnn1-c1cc(NCc2cc(C#N)ccc2F)ccc1F | -10.8%
CN(CC1(O)CCCN(Cc2cccc(F)c2F)C1=O)C1CCCCC1 (centres undefined) | -0.975%
Fc1cnc(N2C[C@@H]3C[C@@H](c4nc(C5CC5)cs4)O[C@@H]3C2)nc1 | -1.67%

SMILES | cytotoxicity at 70.5 h
Cc1nc(CN(C)C2CCN(CC(=O)N(C)CCC#N)C2)no1 (centres undefined) | 0.0577%
COCCc1noc(CN2CCOC(Cn3cc(C)cn3)C2)n1 (centres undefined) | 0.177%
CC(C)N(C)Cc1n[nH]c2c1CCN(C(=O)c1cc[nH]n1)C2 | 21.5%
CCC(=O)N(c1ccc(C(=O)OC)cc1C)C(C)C | -3.07%
Cc1ccc(-c2cnnc(NCC3(N4CCOCC4)CCCC3)n2)o1 | -8.14%
c1ccc(CN2CCc3c(COCC4CC4)cncc3C2)nc1 | -11.4%
CN(CCc1cccs1)CCc1nccs1 | 0.685%
Cc1nc(C)n(CC2CCCN2CC(=O)NC2CCOCC2)n1 (centres undefined) | 2.61%
Clc1cncc(N2CCCC2c2nnc3n2CCCCC3)n1 (centres undefined) | -17.1%
CCNC(=O)[C@@H]1C[C@@H](N)CN1C(=O)C1(c2ccc(OC)cc2)CCCC1 | -9.96%
CNc1cc(C)nc(C2COCCN2CCc2ccccc2)n1 (centres undefined) | -1.48%
CCc1noc(CN2CCN(C(=O)Cc3ccc(F)cc3)CC2)n1 | -5.71%
Cc1ccc(NC2CCN(C(=O)CCCc3ccccn3)CC2)nn1 | 9.21%
NC(=O)CN1CC(c2nc(C3CC3)no2)C1 | -7.4%
CCOCCC(=O)N1C[C@H]2CC[C@@H]1CN(Cc1ccncc1)C2 | -11.6%
N#CCCN(C(=O)CCc1cccnc1)c1ccc2c(c1)OCCO2 | -11.1%
CCC(CN1CCCCC1)NC(=O)C1(c2ccc(F)cc2)CC1 (centres undefined) | -7.64%
Cc1nc(-c2ccc(Cl)s2)sc1C(=O)NCCCC(N)=O | -4.42%
CN(C)c1cc(C2CCCN2C(=O)c2noc3c2CCCC3)ccn1 (centres undefined) | -6.7%
CCCc1cc(=O)[nH]c2nnc(SCC(C)=O)n12 | -6.78%
NC(=O)C1CCN(C(=O)CCCc2nnc(-c3ccccc3)o2)C1 (centres undefined) | -0.453%
Cc1cccc(N(CCC(N)=O)C(=O)c2cnccn2)c1 | -12.9%
CN1CCCC[C@@H]2[C@H]1[C@@H](c1ccccc1)CCN2C(=O)c1ccccc1 | 1.32%

SMILES | cytotoxicity at 70.5 h
Cc1nnnn1-c1ccc(CC(=O)N2CCOCC(O)C2)cc1 (centres undefined) | -6.4%
COCC1CN(S(=O)(=O)Cc2ccccc2)Cc2c1cnn2C (centres undefined) | -1.14%
CN1CCC2(Cc3ccccc3CN(C(=O)Cc3cccc(Cl)c3)C2)C1 (centres undefined) | 30.2%
CN1N=C(c2nc(Cc3cccc(Br)c3)no2)CCC1=O | -2.2%
COc1c(CNCCc2c[nH]c3cc(F)ccc23)c(C(C)C)nn1C | 4.03%
CCc1n[nH]c(C2CN(C(=O)c3ccc(NC4CC4)nc3)CCO2)n1 (centres undefined) | -7.92%
CN(C(=O)c1ccn(C)n1)[C@@H]1CCC[C@@H](Oc2ccccc2)[C@@H]1O | -4.51%
CCOc1ccc(CNC(=O)N(C)Cc2ncnn2C)cc1C | 1.14%
Cc1cc(N2CCN(C(=O)CCc3scnc3C)CC2)cc(C)n1 | 21.2%
COCCNC(=O)Nc1ccc(-n2cncn2)c(C(F)(F)F)c1 | -3.51%
Nc1nc(N)c2c(n1)OC1(CCN(C(=O)CC3CCNCC3)CC1)C2 | 8.24%
CCc1nc(C(=O)N2CCN(C(=O)CCc3ccccc3)CC2)c[nH]1 | -6.61%
Cc1nnc2ccc(OCCNS(=O)(=O)c3cccs3)nn12 | -9.99%
CC(=O)Nc1nc2c(s1)C1(CCCC1)Nc1ccccc1S2 | -3.55%
CC(C)Cc1cc(CNC(=O)c2ccccc2C2CCNC2)no1 (centres undefined) | -17.5%
CC(CNC(=O)Nc1cn[nH]c1)N1CCOCC1 (centres undefined) | -12.1%
CCc1nnsc1C(=O)N1CCCC(n2ccnc2C(C)C)C1 (centres undefined) | -5.12%
Cc1nc(CN2CCCC(Cn3cc(CCO)nn3)C2)c2ccccn12 (centres undefined) | -5.43%
Cc1cc(C)c2c(N3CCC(C(=O)N4CCOCC4)CC3)ncnc2n1 | 20.2%
CCS(=O)(=O)N1CCc2cc(C(=O)N(C)C)c(NCC3CC3)nc2CC1 | 0.785%
Cc1nc(CN2CCCC(c3cc(C(F)(F)F)[nH]n3)C2)cs1 (centres undefined) | -3.08%
COc1ccccc1C(=O)N1CC(=O)N(Cc2ccco2)CC(O)C1 (centres undefined) | -12.4%
